The values that follow come from publication PMC8069214, “Synthesis, Biological Evaluation, and Molecular Modeling of Aza-Crown Ethers” (Molecules, 2021).

Where two headings read alike, the source gives them in different places.

The subject of data set [1] is human neutrophils. Briefly: Ca2+ mobilization assay, direct effect of compounds on [Ca2+]i. It counts as cell-based. The conditions noted are these: Neutrophil; for Emax: % of the response induced by 5 nM fMLF, read-out: Efficacy (converted). The source says: We screened 24 aza- and diaza-crown ethers with adamantyl, adamantylalkyl, aminomethylbenzoyl, and ε-aminocaproyl substituents for their Ca^2+ ionophore effects in human neutrophils. To monitor cytoplasmic Ca^2+ levels, we used the fluorescent Ca^2+ indicator Fluo-4, which is a dynamic single-wavelength fluorescent Ca^2+ indicator. Increases in fluorescence intensity (λex = 485 nm, λem = 538 nm) reflect the rise in cytoplasmic Ca^2+ concentrations ([Ca^2+]i; see Materials and Methods).
Changes in neutrophil intracellular Ca^2+ concentrations ([Ca^2+]i) were measured with a FlexStation 3 scanning fluorometer (Molecular Devices, Sunnyvale, CA, USA). Briefly, human neutrophils were suspended in HBSS^−, loaded with Fluo-4AM at a final concentration of 1.25 μg/mL, and incubated for 30 min in the dark at 37 °C. After dye loading, the cells were washed with HBSS^−, resuspended in HBSS^+, separated into aliquots, and loaded into the wells of flat-bottom, half-area well black microtiter plates (2 × 10^5 cells/well). To assess the direct effects of test compounds on Ca^2+ flux, the compounds were added to the wells (final concentration of DMSO was 1%), and changes in fluorescence were monitored (λex = 485 nm, λem = 538 nm) every 5 s for 240 s at room temperature after addition of the test compound. To evaluate inhibitory effects of the compounds on FPR1/FPR2-dependent Ca^2+ flux, the compounds were added to the wells (final concentration of DMSO was 1%) with cells (human neutrophils or FPR1/FPR2 HL60 cells). The samples were preincubated for 10 min, followed by addition of 5 nM fMLF (for human neutrophils or FPR1-HL60 cells) or 5 nM WKYMVM (for FPR2-HL60 cells). The maximum change in fluorescence, expressed in arbitrary units over baseline, was used to determine the agonist response. Responses were normalized to the response induced by 5 nM fMLF or 5 nM WKYMVM, which were assigned as 100%. Curve fitting (at least five or six points) and calculation of median effective concentration values (EC50 or IC50) were performed by nonlinear regression analysis of the dose–response curves generated using Prism 7 (GraphPad Software, Inc., San Diego, CA, USA). Efficacy was determined by comparing individual responses activated by the test compounds to that induced by a positive control (5 nM fMLF), which was assigned a value of 100%.

Data set [2] has as its system human neutrophils. Briefly: PMA-induced ROS production (L-012 chemiluminescence). The note with it: Neutrophil, 200 nM PMA, N.A. = no activity at < 50 µM. Format: cell-based. An excerpt:
To evaluate if the crown ethers could also disrupt GPCR-independent functional activity, we evaluated the effects of these compounds on phorbol 12-myristate 13-acetate (PMA)-stimulated reactive oxygen species (ROS) production. […] A representative concentration-dependent response for the inhibition of PMA-stimulated neutrophil ROS production by compound 15 is shown in Figure 2B. Since ROS production in neutrophils also requires increased [Ca^2+]i, the results again confirm that the impact of these compounds on Ca^2+ flux kinetics can alter neutrophil function.
ROS production was determined by monitoring L-012-enhanced chemiluminescence, which represents a sensitive and reliable method for detecting superoxide anion (O2^−.) production. Human neutrophils were resuspended at 2 × 10^5 cells/mL in HBSS^+ supplemented with 40 µM L-012. Cells (100 µL) were aliquoted into wells of 96-well flat-bottomed microtiter plates containing test compounds at different concentrations (final DMSO concentration of 1%). Cells were preincubated for 10 min, and 200 nM PMA was added to each well to stimulate ROS production. Luminescence was monitored for 120 min (2-min intervals) at 37 °C using a Fluroscan Ascent FL microtiter plate reader (Thermo Electron, Waltham, MA, USA). The curve of light intensity (in relative luminescence units) was plotted against time, and the area under the curve was calculated as total luminescence. The compound concentration that inhibited ROS production by 50% of the PMA-induced response (positive control) was determined by graphing the percentage inhibition of ROS production versus the logarithm of concentration of test sample (IC50). Each curve was determined using five to seven concentrations.

Where [3] appears, read: Homo sapiens, elevation of [Ca2+]i, Fluo-4, N.A. = no activity was found at concentration < 50 µM, read-out: EC50, effect on [Ca^2+]i flux in human neutrophils.
The mark [4] stands for this setting: reciprocal of EC50 in human neutrophils, inactive compounds assigned zero, read-out: 1/[EC50] (converted).

Usually IC50 stands for the concentration that inhibits the measured activity by half. Read a low IC50 as higher potency. `O=C(N1CCOCCOCCN(C(=O)C23CC4CC(CC(C4)C2)C3)CCOCC1)C12CC3CC(CC(C3)C1)C2` [Compound 13, N,N’-bis[1-oxo-1-(1-adamantyl)methyl]-4,10-diaza-15-crown-5]: the Emax in the data set on human neutrophils [1] (Homo sapiens) was 25 to 50%. The EC50 with human neutrophils [1] (setting [3]) was 6.9 ± 2.1 µM; in the data set on human neutrophils [1] (setting [4]), 6.9 µM. This molecule also displayed an IC50 with human neutrophils [2] of 25.9 ± 2.7 µM.
On the same counts, the results for `O=C(N1CCOCCOCCOCCN(C(=O)C23CC4CC(CC(C4)C2)C3)CCOCC1)C12CC3CC(CC(C3)C1)C2` [Compound 14, N,N’-bis[1-oxo-1-(1-adamantyl)methyl]-4,10-diaza-18-crown-6] are 25 to 50%, 9.5 ± 2.7 µM, 9.5 µM and 21.9 ± 2.2 µM.
In general, melting point refers to the temperature of the solid-liquid transition. `O=C(CC12CC3CC(CC(C3)C1)C2)N1CCOCCOCCN(C(=O)CC23CC4CC(CC(C4)C2)C3)CCOCC1` [Compound 15, N,N’-bis[2-(1-adamantyl)acetyl]-4,10-diaza-15-crown-5] returned a melting point of 72 to 76 °C. Further, the Emax in the data set on human neutrophils [1] (Homo sapiens) is 110%. In addition, the EC50 with human neutrophils [1] (setting [3]) was determined as 4.7 ± 1.5 µM. Moreover, the EC50 with human neutrophils [1] (setting [4]) is 4.7 µM. Half-maximal inhibition in the data set on human neutrophils [2] (IC50) was put at 4.1 ± 0.1 µM.
In the case of `O=C(CC12CC3CC(CC(C3)C1)C2)N1CCOCCOCCN(C(=O)CC23CC4CC(CC(C4)C2)C3)CCOCCOCC1` [Compound 17, N,N’-bis[2-(1-adamantyl)acetyl]-4,13-diaza-18-crown-6], the EC50 in the data set on human neutrophils [1] (setting [3]) was 15.9 ± 2.5 µM; in the data set on human neutrophils [1] (setting [4]), 15.9 µM. In the data set on human neutrophils [2], this molecule showed a half-inhibitory concentration (IC50) of 8.2 ± 0.1 µM.
